Experimental data reported in ChEMBL document CHEMBL5055673, “Direct evidence of edge-to-face CH/π interaction for PAR-1 thrombin receptor activation” (Bioorg Med Chem, 2021).
Numbered stars: 1 amine (or outer) side, 2 acyl side, 3 side chain; on linkers, the order of the positions; unused ones are H or OH. Square brackets hold non-standard residues; d marks the D form. Peptide text beside a SMILES is read from it. Phe(3,4,5-F3) = N[C@@H](Cc1cc(F)c(F)c(F)c1)C(=O)O; Phe(F5) = N[C@@H](Cc1c(F)c(F)c(F)c(F)c1F)C(=O)O; X1 = O=C([C@H](Cc1c(F)c(F)cc(F)c1F)N[*:1])[*:2]; X2 = O=C([C@H](Cc1c(F)cc(F)c(F)c1F)N[*:1])[*:2]; X3 = O=C([C@H](Cc1cc(F)c(F)c(F)c1F)N[*:1])[*:2]; Phe(3,5-F2) = N[C@@H](Cc1cc(F)cc(F)c1)C(=O)O; X4 = O=C([C@H](Cc1ccc(F)c(F)c1F)N[*:1])[*:2]; X5 = O=C([C@H](Cc1cc(F)c(F)cc1F)N[*:1])[*:2]; X7 = O=C([C@H](Cc1c(F)cc(F)cc1F)N[*:1])[*:2]; Phe(2,6-F2) = N[C@@H](Cc1c(F)cccc1F)C(=O)O; X6 = O=C([C@H](Cc1cc(F)ccc1F)N[*:1])[*:2]; Phe(4-F) = N[C@@H](Cc1ccc(F)cc1)C(=O)O; Cha = N[C@@H](CC1CCCCC1)C(=O)O

Legend:
[1] = biological target: T1, Proteinase-activated receptor 1 (Homo sapiens) (UniProt P25116); assay: Activation of PAR-1 in human platelet-rich plasma assessed as induction of platelet aggregation by turbidimetric method relative to S/Phe/FLLRNP; type: cell-based
T1 sequence (whole entry): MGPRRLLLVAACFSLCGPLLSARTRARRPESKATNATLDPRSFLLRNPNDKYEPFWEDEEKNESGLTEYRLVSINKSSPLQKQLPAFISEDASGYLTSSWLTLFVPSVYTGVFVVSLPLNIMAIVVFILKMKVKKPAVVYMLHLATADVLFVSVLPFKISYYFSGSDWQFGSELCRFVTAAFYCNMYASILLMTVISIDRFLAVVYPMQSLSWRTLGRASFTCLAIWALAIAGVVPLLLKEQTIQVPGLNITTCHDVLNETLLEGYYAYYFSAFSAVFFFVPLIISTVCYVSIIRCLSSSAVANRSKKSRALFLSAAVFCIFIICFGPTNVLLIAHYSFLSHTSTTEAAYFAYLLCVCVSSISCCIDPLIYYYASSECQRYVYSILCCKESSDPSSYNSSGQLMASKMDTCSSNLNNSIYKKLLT

[2] = biological target: T2, Proteinase-activated receptor 1 (Homo sapiens, UniProt P25116); assay: Activation of PAR-1 in human platelet-rich plasma assessed as induction of platelet aggregation by turbidimetric method
T2 sequence (P25116 whole entry): T1 sequence (whole entry)

[3] = species: Homo sapiens; assay: Induction of platelet aggregation in human platelet-rich plasma assessed as increase in transmissivity by turbidimetric method; type: functional
[4] = species: Homo sapiens; assay: Induction of platelet aggregation in human platelet-rich plasma assessed as decrease in turbidity by turbidimetric method; type: functional

| Molecule | Activity [1] | Activity ([1]; filed as activator) | also measured |
| --- | --- | --- | --- |
| CC(C)C[C@H](NC(=O)[C@H](CC(C)C)NC(=O)[C@H](Cc1c(F)cc(F)c(F)c1F)NC(=O)[C@@H](N)CO)C(=O)N[C@@H](CCCNC(=N)N)C(=O)N[C@@H](CC(N)=O)C(=O)N1CCC[C@H]1C(N)=O (H-S[X2]LLRNP-NH2) | 34% |  |  |
| CC(C)C[C@H](NC(=O)[C@H](CC(C)C)NC(=O)[C@H](CC1CCCCC1)NC(=O)[C@@H](N)CO)C(=O)N[C@@H](CCCNC(=N)N)C(=O)N[C@@H](CC(N)=O)C(=O)N1CCC[C@H]1C(N)=O (H-S[Cha]LLRNP-NH2) | 3% |  |  |
| CC(C)C[C@H](NC(=O)[C@H](Cc1c(F)cc(F)c(F)c1F)NC(=O)[C@@H](N)CO)C(=O)N[C@@H](CC(C)C)C(=O)N[C@@H](CC(N)=O)C(=O)N1CCC[C@H]1C(N)=O (H-S[X2]LLNP-NH2) | 34% |  |  |
| CC(C)C[C@H](NC(=O)[C@H](CC(C)C)NC(=O)[C@H](Cc1c(F)c(F)cc(F)c1F)NC(=O)[C@@H](N)CO)C(=O)N[C@@H](CCCNC(=N)N)C(=O)N[C@@H](CC(N)=O)C(=O)N1CCC[C@H]1C(N)=O (H-S[X1]LLRNP-NH2) | 0% |  | EC50 [2]: Not Active |
| CC(C)C[C@H](NC(=O)[C@H](Cc1c(F)cccc1F)NC(=O)[C@@H](N)CO)C(=O)N[C@@H](CC(C)C)C(=O)N[C@@H](CC(N)=O)C(=O)N1CCC[C@H]1C(N)=O (H-S[Phe(2,6-F2)]LLNP-NH2) | 11% |  |  |
| CC(C)C[C@H](NC(=O)[C@H](Cc1ccc(F)cc1)NC(=O)[C@@H](N)CO)C(=O)N[C@@H](CC(C)C)C(=O)N[C@@H](CC(N)=O)C(=O)N1CCC[C@H]1C(N)=O (H-S[Phe(4-F)]LLNP-NH2) |  | 250% |  |
| CC(C)C[C@H](NC(=O)[C@H](Cc1cc(F)c(F)c(F)c1)NC(=O)[C@@H](N)CO)C(=O)N[C@@H](CC(C)C)C(=O)N[C@@H](CC(N)=O)C(=O)N1CCC[C@H]1C(N)=O (H-S[Phe(3,4,5-F3)]LLNP-NH2) | 16% |  |  |
| CC(C)C[C@H](NC(=O)[C@H](Cc1cc(F)ccc1F)NC(=O)[C@@H](N)CO)C(=O)N[C@@H](CC(C)C)C(=O)N[C@@H](CC(N)=O)C(=O)N1CCC[C@H]1C(N)=O (H-S[X6]LLNP-NH2) | 35% |  |  |
| CC(C)C[C@H](NC(=O)[C@H](Cc1cc(F)c(F)cc1F)NC(=O)[C@@H](N)CO)C(=O)N[C@@H](CC(C)C)C(=O)N[C@@H](CC(N)=O)C(=O)N1CCC[C@H]1C(N)=O (H-S[X5]LLNP-NH2) |  | 180% |  |
| CC(C)C[C@H](NC(=O)[C@H](Cc1c(F)c(F)c(F)c(F)c1F)NC(=O)[C@@H](N)CO)C(=O)N[C@@H](CC(C)C)C(=O)N[C@@H](CC(N)=O)C(=O)N1CCC[C@H]1C(N)=O (H-S[Phe(F5)]LLNP-NH2) | 0% |  |  |
| CC(C)C[C@H](NC(=O)[C@H](CC(C)C)NC(=O)[C@H](Cc1c(F)c(F)c(F)c(F)c1F)NC(=O)[C@@H](N)CO)C(=O)N[C@@H](CCCNC(=N)N)C(=O)N[C@@H](CC(N)=O)C(=O)N1CCC[C@H]1C(N)=O (H-S[Phe(F5)]LLRNP-NH2) | 0% |  | EC50 [2]: Not Active |
| CC(C)C[C@H](NC(=O)[C@H](CC(C)C)NC(=O)[C@H](Cc1cc(F)c(F)c(F)c1F)NC(=O)[C@@H](N)CO)C(=O)N[C@@H](CCCNC(=N)N)C(=O)N[C@@H](CC(N)=O)C(=O)N1CCC[C@H]1C(N)=O (H-S[X3]LLRNP-NH2) | 6% |  |  |
| H-SFLLRNP-NH2 |  | 100% | Activity [3]: Dose-dependent effect; Activity [4]: Dose-dependent effect |
| CC(C)C[C@H](NC(=O)[C@H](Cc1cc(F)c(F)c(F)c1F)NC(=O)[C@@H](N)CO)C(=O)N[C@@H](CC(C)C)C(=O)N[C@@H](CC(N)=O)C(=O)N1CCC[C@H]1C(N)=O (H-S[X3]LLNP-NH2) | 6% |  |  |
| CC(C)C[C@H](NC(=O)[C@H](Cc1c(F)cc(F)cc1F)NC(=O)[C@@H](N)CO)C(=O)N[C@@H](CC(C)C)C(=O)N[C@@H](CC(N)=O)C(=O)N1CCC[C@H]1C(N)=O (H-S[X7]LLNP-NH2) |  | 49% |  |
| H-SALLRNP-NH2 | 0% |  | EC50 [2]: Not Active |
| H-SFLLNP-NH2 |  | 100% |  |
| CC(C)C[C@H](NC(=O)[C@H](Cc1ccc(F)c(F)c1F)NC(=O)[C@@H](N)CO)C(=O)N[C@@H](CC(C)C)C(=O)N[C@@H](CC(N)=O)C(=O)N1CCC[C@H]1C(N)=O (H-S[X4]LLNP-NH2) |  | 98% |  |
| CC(C)C[C@H](NC(=O)[C@H](Cc1cc(F)cc(F)c1)NC(=O)[C@@H](N)CO)C(=O)N[C@@H](CC(C)C)C(=O)N[C@@H](CC(N)=O)C(=O)N1CCC[C@H]1C(N)=O (H-S[Phe(3,5-F2)]LLNP-NH2) | 11% |  |  |
